Assay results: patent US20230107642A1 (Erasca, Inc., priority 2020, published 2023)

Each compound was assayed against T1, K-Ras G12C (Homo sapiens, UniProt P01116, G12C) (assay: CAF assay (% CAF; method in Example 7, not in this part)). Conditions: 10 uM compound, 1 h incubation.
T1 construct: This protein contained 188 amino acids in total, including an N-terminal 6-Histidine tag; made in house; host or cells: E. coli BL21
Type: binding

% CAF @ 10 uM, 1h	Compound
96.2%	C=CC(=O)N1[C@H](C)CN(c2nc(=O)n3c4c(c(-c5ccc(F)cc5F)c(C(F)(F)F)cc24)SC[C@@H]3COC)C[C@@H]1C [Example 513, (3S)-7-((3S,5R)-4-acryloyl-3,5-dimethylpiperazin-1-yl)-10-(2,4-difluorophenyl)-3-(methoxymethyl)-9-(trifluoromethyl)-2H-[1,4]thiazino[2,3,4-ij]quinazolin-5(3H)-one]
96.9%	C=CC(=O)N1CCN(c2nc(=O)n3c4c(c(-c5ccc(F)cc5F)c(C(F)(F)F)cc24)SC[C@@H]3COC)CC1 (atropisomer, axis not shown) [Example 579, (3S,10S)-7-(4-acryloylpiperazin-1-yl)-10-(2,4-difluorophenyl)-3-(methoxymethyl)-9-(trifluoromethyl)-2,3-dihydro-5H-[1,4]thiazino[2,3,4-ij]quinazolin-5-one]
77.7%	C=CC(=O)N1[C@H](C)CN(c2nc(=O)n3c4c(c(-c5cc(Cl)c(F)cc5F)c(C(F)(F)F)cc24)SC[C@@H]3CN2CCC3(CC2)COC3)C[C@@H]1C (atropisomer, axis not shown) [Example 566, (3S,10R)-3-((2-oxa-7-azaspiro[3.5]nonan-7-yl)methyl)-7-((3S,5R)-4-acryloyl-3,5-dimethylpiperazin-1-yl)-10-(5-chloro-2,4-difluorophenyl)-9-(trifluoromethyl)-2,3-dihydro-5H-[1,4]thiazino[2,3,4-ij]quinazolin-5-one]
74.4%	C=CC(=O)N1CCN(c2nc(=O)n3c4c(c(-c5ccc(F)cc5)c(C(F)(F)F)cc24)SC[C@@H]3COCOC)[C@@H](C)C1 [Example 516, (S)-7-((S)-4-acryloyl-2-methylpiperazin-1-yl)-10-(4-fluorophenyl)-3-((methoxymethoxy)methyl)-9-(trifluoromethyl)-2H-[1,4]thiazino[2,3,4-ij]quinazolin-5(3H)-one]
86.6%	C=CC(=O)N1CCN(c2nc(=O)n3c4c(c(-c5ccc(F)cc5F)c(Cl)cc24)SC[C@@H]3CC2CCN(CC)CC2)[C@@H](C)C1 [Example 413, (3S)-7-((S)-4-acryloyl-2-methylpiperazin-1-yl)-9-chloro-10-(2,4-difluorophenyl)-3-((1-ethylpiperidin-4-yl)methyl)-2H-[1,4]thiazino[2,3,4-ij]quinazolin-5(3H)-one]
87.8%	C=CC(=O)N1CCN(c2nc(=O)n3c4c(c(-c5ccc(F)cc5)c(Cl)cc24)SC[C@@H]3CN2CCC3(CC2)COC3)[C@@H](C)C1 [Example 462, (S)-3-(2-oxa-7-azaspiro[3.5]nonan-7-ylmethyl)-7-((S)-4-acryloyl-2-methylpiperazin-1-yl)-9-chloro-10-(4-fluorophenyl)-2H-[1,4]thiazino[2,3,4-ij]quinazolin-5(3H)-one]
2.6%	C=CC(=O)N1CCN(c2nc(=O)n3c4c(c(-c5ccc(F)cc5F)c(Cl)cc24)SC[C@H]3COC2CN(CC)C2)[C@@H](C)C1 [Example 432, (3R)-7-((S)-4-acryloyl-2-methylpiperazin-1-yl)-9-chloro-10-(2,4-difluorophenyl)-3-(((1-ethylazetidin-3-yl)oxy)methyl)-2,3-dihydro-5H-[1,4]thiazino[2,3,4-ij]quinazolin-5-one]
48.2%	C=CC(=O)N1C[C@H](C)N(c2nc(=O)n3c4c(c(-c5cc(F)c(F)cc5F)c(C(F)(F)F)cc24)SC[C@@H]3CN2CCN(CC(F)F)CC2)C[C@H]1C [Example 443, (3S)-7-((2S,5R)-4-acryloyl-2,5-dimethylpiperazin-1-yl)-3-((4-(2,2-difluoroethyl)piperazin-1-yl)methyl)-9-(trifluoromethyl)-10-(2,4,5-trifluorophenyl)-2H-[1,4]thiazino[2,3,4-ij]quinazolin-5(3H)-one]

Further lines, the compound ahead of its results:

Compound	% CAF @ 10 uM, 1h
O=C1CC2CN(c3nc(=O)n4c5c(c(-c6ccc(F)cc6F)c(C(F)(F)F)cc35)SCC4)CC(C1)N2C(=O)/C=C/C(F)F [Example 439, (E)-7-(9-(4,4-difluorobut-2-enoyl)-7-oxo-3,9-diazabicyclo[3.3.1]nonan-3-yl)-10-(2,4-difluorophenyl)-9-(trifluoromethyl)-2,3-dihydro-5H-[1,4]thiazino[2,3,4-ij]quinazolin-5-one]	97%
C=CC(=O)N1C[C@H](C)N(c2nc(=O)n3c4c(c(-c5ccc(F)cc5F)c(Cl)cc24)SC[C@@H]3CN2CCN(CC(F)F)CC2)C[C@H]1C [Example 550, (3S)-7-((2S,5R)-4-acryloyl-2,5-dimethylpiperazin-1-yl)-9-chloro-3-((4-(2,2-difluoroethyl)piperazin-1-yl)methyl)-10-(2,4-difluorophenyl)-2H-[1,4]thiazino[2,3,4-ij]quinazolin-5(3H)-one]	91.6%
C=CC(=O)N1CCN(c2nc(=O)n3c4c(c(-c5ccc(F)cc5F)c(C(F)(F)F)cc24)SC[C@@H](N(C)CC(F)(F)F)C3)[C@@H](C)C1 [Example 454, (3S)-8-((S)-4-acryloyl-2-methylpiperazin-1-yl)-11-(2,4-difluorophenyl)-3-(methyl(2,2,2-trifluoroethyl)amino)-10-(trifluoromethyl)-3,4-dihydro-2H,6H-[1,4]thiazepino[2,3,4-ij]quinazolin-6-one]	61%
C=CC(=O)N1[C@H](C)CN(c2nc(=O)n3c4c(c(-c5cc(Cl)c(F)cc5F)c(C(F)(F)F)cc24)SC[C@@H]3COCOC)C[C@@H]1C [Example 567, (3S)-7-((3S,5R)-4-acryloyl-3,5-dimethylpiperazin-1-yl)-10-(5-chloro-2,4-difluorophenyl)-3-((methoxymethoxy)methyl)-9-(trifluoromethyl)-2H-[1,4]thiazino[2,3,4-ij]quinazolin-5(3H)-one]	64.4%
C=CC(=O)N1[C@H](C)CN(c2nc(=O)n3c4c(c(-c5ccc(F)cc5F)c(C(F)(F)F)cc24)SC[C@@H]3CN2CCC3(CC2)COC3)C[C@@H]1C (atropisomer, axis not shown) [Example 577, (3S)-3-(2-oxa-7-azaspiro[3.5]nonan-7-ylmethyl)-7-((3S,5R)-4-acryloyl-3,5-dimethylpiperazin-1-yl)-10-(2,4-difluorophenyl)-9-(trifluoromethyl)-2H-[1,4]thiazino[2,3,4-ij]quinazolin-5(3H)-one]	74.8%
C=CC(=O)N1CCN(c2nc(=O)n3c4c(c(-c5ccc(F)cc5F)c(C(F)(F)F)cc24)SC[C@@H]3COC)CC1 (atropisomer, axis not shown) [Example 578, (3S,10R)-7-(4-acryloylpiperazin-1-yl)-10-(2,4-difluorophenyl)-3-(methoxymethyl)-9-(trifluoromethyl)-2,3-dihydro-5H-[1,4]thiazino[2,3,4-ij]quinazolin-5-one]	98%
C=CC(=O)N1CCN(c2nc(=O)n3c4c(c(-c5cc(F)c(F)cc5F)c(Cl)cc24)SC[C@@H]3CN2CCN(CC)CC2)[C@@H](C)C1 [Example 416, (3S)-7-((S)-4-acryloyl-2-methylpiperazin-1-yl)-9-chloro-3-((4-ethylpiperazin-1-yl)methyl)-10-(2,4,5-trifluorophenyl)-2H-[1,4]thiazino[2,3,4-ij]quinazolin-5(3H)-one]	91.2%

Same assay, conditions: 10 uM, 1 h; Table 3

% CAF @ 10 uM, 1h	Compound
96%	C=CC(=O)N1CCN(c2nc(=O)n3c4c(c(-c5ccc(F)cc5F)c(Cl)cc24)SCC3)[C@@H](C)C1 [Example 179, (S)-7-((S)-4-acryloyl-2-methylpiperazin-1-yl)-9-chloro-10-(2,4-difluorophenyl)-2,3-dihydro-5H-[1,4]thiazino[2,3,4-ij]quinazolin-5-one]
92.5%	C=CC(=O)N1CCN(c2nc(=O)n3c4c(c(-c5ccc(F)cc5F)c(OC)cc24)SCC3)[C@@H](C)C1 [Example 103, 7-((S)-4-acryloyl-2-methylpiperazin-1-yl)-10-(2,4-difluorophenyl)-9-methoxy-2,3-dihydro-5H-[1,4]thiazino[2,3,4-ij]quinazolin-5-one]
94.1%	C=CC(=O)N1CCN(c2nc(=O)n3c4c(c(-c5ccc(F)cc5F)c(C)cc24)SCC3)[C@@H](C)C1 [Example 115, 7-((S)-4-acryloyl-2-methylpiperazin-1-yl)-10-(2,4-difluorophenyl)-9-methyl-2,3-dihydro-5H-[1,4]thiazino[2,3,4-ij]quinazolin-5-one]
94.5%	C=C(F)C(=O)N1CCN(c2nc(=O)n3c4c(c(-c5ccc(F)cc5F)c(Cl)cc24)SCC3)C[C@H]1C#N [Example 125, (2S)-4-(9-chloro-10-(2,4-difluorophenyl)-5-oxo-2,3-dihydro-5H-[1,4]thiazino[2,3,4-ij]quinazolin-7-yl)-1-(2-fluoroacryloyl) piperazine-2-carbonitrile]
94.1%	C=CC(=O)N1CCN(c2nc(=O)n3c4c(c(-c5ccc(F)cc5)c(Cl)cc24)SCC3)[C@@H](C)C1 [Example 151, (S)-7-(4-acryloyl-2-methylpiperazin-1-yl)-9-chloro-10-(4-fluorophenyl)-2,3-dihydro-5H-[1,4]thiazino[2,3,4-ij]quinazolin-5-one]

Second part, the compound before the results:

Compound	% CAF @ 10 uM, 1h
C=CC(=O)N1CCN(c2nc(=O)n3c4c(c(-c5ccc(F)cc5F)c(Cl)cc24)SC[C@H]3COC)[C@@H](C)C1 [Example 130, (3R)-7-((S)-4-acryloyl-2-methylpiperazin-1-yl)-9-chloro-10-(2,4-difluorophenyl)-3-(methoxymethyl)-2,3-dihydro-5H-[1,4]thiazino[2,3,4-ij]quinazolin-5-one]	94.5%
C=CC(=O)N1CCN(c2nc(=O)n3c4c(c(-c5ccc(F)cc5F)c(Cl)cc24)SCC3)[C@@H](C)C1 (atropisomer, axis not shown) [Example 180, (R)-7-((S)-4-acryloyl-2-methylpiperazin-1-yl)-9-chloro-10-(2,4-difluorophenyl)-2,3-dihydro-5H-[1,4]thiazino[2,3,4-ij]quinazolin-5-one]	94.7%

Same assay, conditions: 10 μM, 1 h; Table 4

% CAF @ 10 μM, 1 h	Compound
94.5%	C=CC(=O)N1CCN(c2nc(=O)n3c4c(c(-c5ccc(F)cc5F)c(Cl)cc24)SC[C@H]3COC)[C@@H](C)C1 [Example 130, (3R)-7-((S)-4-acryloyl-2-methylpiperazin-1-yl)-9-chloro-10-(2,4-difluorophenyl)-3-(methoxymethyl)-2,3-dihydro-5H-[1,4]thiazino[2,3,4-ij]quinazolin-5-one]
96%	C=CC(=O)N1CCN(c2nc(=O)n3c4c(c(-c5ccc(F)cc5F)c(Cl)cc24)SC[C@@H]3CN2CCN(CC)CC2)[C@@H](C)C1 [Example 354, (3S)-7-((S)-4-acryloyl-2-methylpiperazin-1-yl)-9-chloro-10-(2,4-difluorophenyl)-3-((4-ethylpiperazin-1-yl)methyl)-2H-[1,4]thiazino[2,3,4-ij]quinazolin-5(3H)-one]
